# Earlier results as cited in patent US20030212138A1, “Combinations of peroxisome proliferator-activated receptor-alpha agonists and cyclooxygenase-2 selective inhibitors and therapeutic uses therefor” (Pharmacia Corporation, priority 2002, published 2003).
# Test system: fibroblast growth factor-induced corneal angiogenesis
# Details: rats; Masferrer et al. 1999
smiles,measurement,value
"Cc1ccc(-c2cc(C(F)(F)F)nn2-c2ccc(S(N)(=O)=O)cc2)cc1 [Celecoxib®, 4-[5-(4-methylphenyl)-3-(trifluoromethyl)-1H-pyrazol-1-yl]benzenesulfonamide]",inhibition of fibroblast growth factor-induced corneal angiogenesis,potent inhibition
